Legend:
[1] = Diuretic action (general statement); assay type: in vivo; details: for diuretic action (in words): in vivo
[2] = clinical tests; U.S. Pat. No. 4,330,558; cited from earlier work
[3] = clinical tests; U.S. Pat. No. 4,497,826; cited from earlier work
[4] = Acute toxicity by oral dosage to rat; details: in vivo
[5] = Acute toxicity by oral dosage to dog; details: in vivo
[6] = Acute toxicity by oral dosage to mouse; details: in vivo
[7] = Effect of periphery decarboxylase inhibitor (DCI) on diuretic action of L-threo-DOPS (Experimental Example 3); assay type: in vivo, rats; details: for effect on diuretic action of L-threo-DOPS when used together (in words): p.o. at the same time with L-threo-DOPS
Protocol: Investigation was made on the effect of L-threo-DOPS on diuretic action when DCI, benserazide or carbidopa was dosed by oral administration at the same time, as in the same manner as Experimental Example 1.

renal blood vessel = details: in vivo; cited from earlier work
[8] = animals; U.S. Pat. No. 3,920,728; cited from earlier work
[9] = tested on: aromatic L-amino acid decarboxylase; details: cited from earlier work; for NA isomer formed: in vivo
[10] = Effect of L-threo-DOPS on urinary volume of rats (Experimental Example 1); assay type: in vivo; details: rats, 10, 30, 100 mg/kg p.o., 3 hours, FIG. 1
Protocol: (§1) The ordinate represents the urinary volume (ml/kg/3 hr) and the abscissa, the amount of dosage of L-threo-DOPS (mg/kg).
(§2) In FIG. 1 and FIG. 2, the mark * represents p<0.05 (compared with the control group).
(§3) Three rats starved for 17 hours were arranged to form a group. Ten mg/kg, 30 mg/kg, and 100 mg/kg of L-threo-DOPS were suspended in a 0.5% aqueous solution of methyl cellulose, respectively, and orally administered together with 25 ml/kg of isotonic sodium chloride solution. To the control groups were dosed only 0.5% aqueous solution of methyl cellulose and isotonic sodium chloride solution. The urinary volume was measured through 3 hours after the dosage. In addition, among electrolytes in the urine, amounts of sodium ion (Na^+) and potassium ion (K^+) were measured by a flame photometer, and an amount of chlorine ion (Cl^-) by the method of Zall et al. (Anal. Chem. 28, 1665).

[11] = Effect of L-threo-DOPS on electrolytes in urine of rats (Experimental Example 1); assay type: in vivo; details: for amount of Cl^- in urine / amount of K^+ in urine / amount of Na^+ in urine: 3 hours, average of 5 groups±S.E.
Protocol: as §3
In the table, values are represented in a unit of mEq/kg/3 hr and as the average of 5 groups±S.E.

[12] = Effect of L-threo-DOPS on urinary volume of mice (Experimental Example 2); assay type: in vivo; details: FIG. 2
Protocol: as §1, §2
Ten mice starved for 17 hours were arranged to form a group. Ten mg/kg, 30 mg/kg, and 100 mg/kg of L-threo-DOPS were suspended in a 0.5% aqueous solution of methyl cellulose, respectively, and orally administered together with […] of isotonic sodium chloride solution. To the control groups were dosed only 0.5% aqueous solution of methyl cellulose and isotonic sodium chloride solution.

[13] = Amount of NA in the kidney and heart of rats after the dosage of L-threo-DOPS (Experimental Example 4); assay type: in vivo
Protocol: To the rats were dosed 30 mg/kg of L-threo-DOPS by oral adminstration, and the amount of NA in the kidney and heart after 1 hour was measured.
The method for the measurement was nearly in accordance with the method of Suzuki, et al. (Europ. J. Clin. Pharmacol., 23, 463, 1982).

harmaline induced tremor = details: Japanese Patent Publication 125630/1977; cited from earlier work
[14] = rats; Araki et al. 1981; cited from earlier work
[15] = rats; Araki et al. 1978; cited from earlier work
[16] = U.S. Pat. No. 4,529,603; cited from earlier work
[17] = rats, 30 mg/kg p.o., after 1 hour, average of 5 rats±S.E.

N[C@H](C(=O)O)[C@H](O)c1ccc(O)c(O)c1 (relative stereo) [DL-threo-DOPS]
diuretic action (in words) [1]: significant diuretic action
effect on orthostatic hypotension [2]: beneficial effects
effect on freezing phenomena of Parkinson's disease [3]: beneficial effects
LD50 [4]: ≥ 10000 mg/kg
LD50 [5]: ≥ 10000 mg/kg
LD50 [6]: ≥ 10000 mg/kg

NC(CO)C(=O)NNCc1ccc(O)c(O)c1O (stereo not drawn) [benserazide]
effect on diuretic action of L-threo-DOPS when used together (in words) [7]: significantly decreased

C[C@@](Cc1ccc(O)c(O)c1)(NN)C(=O)O [carbidopa]
effect on diuretic action of L-threo-DOPS when used together (in words) [7]: significantly decreased

NC[C@H](O)c1ccc(O)c(O)c1 [l-NA]
action on the renal blood vessel (renal blood vessel): contractive action
effect on renal blood flow (renal blood vessel): decrease in the renal blood flow

N[C@H](C(=O)O)[C@H](O)c1ccc(O)c(O)c1 (relative stereo) [threo-DOPS, threo-3-(3,4-dihydroxyphenyl)-serine]
antihypertensive or antidepressive effect [8]: antihypertensive or antidepressive effect

N[C@H](C(=O)O)C(O)c1ccc(O)c(O)c1 (stereo partly drawn) [L-DOPS]
conversion to noradrenaline in vivo ([9]; by aromatic L-amino acid decarboxylase): converted to noradrenaline

N[C@H](C(=O)O)[C@@H](O)c1ccc(O)c(O)c1 (relative stereo) [erythro-DOPS, reference compound]
antihypertensive or antidepressive effect [8]: antihypertensive or antidepressive effect

N[C@H](C(=O)O)[C@H](O)c1ccc(O)c(O)c1 [L-threo-DOPS]
urinary volume (in words) [10]: Increase in the urinary volume was recognized in accordance with the amount of dosage
amount of Cl^- in urine ([11]; 10 mg/kg p.o.): 1.89 ± 0.14 mEq/kg/3 hr
amount of K^+ in urine ([11]; 10 mg/kg p.o.): 0.32 ± 0.03 mEq/kg/3 hr
amount of Na^+ in urine ([11]; 10 mg/kg p.o.): 1.58 ± 0.12 mEq/kg/3 hr
amount of Cl^- in urine ([11]; 30 mg/kg p.o.): 2.97 ± 0.25 mEq/kg/3 hr
amount of K^+ in urine ([11]; 30 mg/kg p.o.): 0.37 ± 0.05 mEq/kg/3 hr
amount of Na^+ in urine ([11]; 30 mg/kg p.o.): 2.45 ± 0.32 mEq/kg/3 hr
amount of Cl^- in urine ([11]; 100 mg/kg p.o.): 3.24 ± 0.07 mEq/kg/3 hr
amount of K^+ in urine ([11]; 100 mg/kg p.o.): 0.45 ± 0.03 mEq/kg/3 hr
amount of Na^+ in urine ([11]; 100 mg/kg p.o.): 3.15 ± 0.07 mEq/kg/3 hr
amount of Na^+ in urine (in words) ([11]; groups dosed 10 mg/kg or more p.o.): significantly increases
amount of Cl^- in urine (in words) ([11]; only in groups dosed 30 mg/kg or more p.o.): significantly increased
amount of K^+ in urine (in words) ([11]; only in the group dosed 100 mg/kg p.o.): significant increase
amount of K^+ in urine (in words) ([11]; p.o., doses in general): not so much influenced
urinary volume (in words) ([12]; mice, 10, 30, 100 mg/kg p.o.): increases the urinary volume in accordance with the amount of dosage
urinary volume, significance (in words) ([12]; mice, group dosed 100 mg/kg p.o.): significant
Urinary volume ([7]; L-threo-DOPS 30 mg/kg p.o. alone, average of 5 groups±S.E.): 51.9 ± 3.0 ml/kg/3 hr
NA in the heart (in words) ([13]; 30 mg/kg p.o.): no influence
amount of NA in the kidney (in words) ([13]; 30 mg/kg p.o.): markedly increases
NA concentration in the kidney compared with those in other organs (in words) ([13]; rat, in vivo): significantly increased
amount of NA in the heart [13, 17]: 1.00 ± 0.06 ng/g wet weight
amount of NA in the kidney [13, 17]: 1.80 ± 0.35 ng/g wet weight
course of diuretic action (in words) ([1]; easy manner such as oral administration): uniformly and prolongably
diuretic action (in words) [1]: significant diuretic action
effect on harmaline induced tremor (harmaline induced tremor): inhibitory effect
pressor effect [14]: pressor effect
positive chronotropic effect [15]: positive chronotropic effect
effect on orthostatic hypotension [2]: beneficial effects
effect on freezing phenomena of Parkinson's disease [3]: beneficial effects
NA isomer formed [9]: natural type l-NA
LD50 [4]: ≥ 10000 mg/kg
LD50 [5]: ≥ 10000 mg/kg
LD50 [6]: ≥ 10000 mg/kg

N[C@H](C(=O)O)[C@@H](O)c1ccc(O)c(O)c1 [L-erythro-DOPS]
effect on psychmotor excitement [16]: suppressive effect
NA isomer formed [9]: unnatural type d-NA

From US4647587A, “Method for treatment of antidiuresis employing serine derivatives” (Sumitomo Pharmaceuticals Company, Limited, priority 1984, dated 1987)
